Measured values reported in PMC9967085, “Properly Substituted Benzimidazoles as a New Promising Class of Nicotinate Phosphoribosyltransferase (NAPRT) Modulators” (Pharmaceuticals, 2023).
Values joined by “and” are separate entries in the source; they are usually repeats but may differ in a detail not shown here. Equal entries are not always repeated. Where two headings read alike, the source gives them in different places.

Key:
[1] = Plasma protein binding by equilibrium dialysis, mouse; format: in vitro ADME; settings: performed at 0.5 μM, read-out: Protein Binding, Mouse plasma (FU)
Description: (§1) The in silico ADME characterization has recently been reported for NAPRT inhibitors 1, 15 and 16, belonging to different chemotypes, and the results indicated promising pharmacokinetic features for the studied compounds [17]. With the aim to preliminarily shed light on the pharmacokinetics of this series of compounds, 18 was evaluated for its in vitro ADME profile. Kinetic solubility at pH 7.4, plasma protein binding from human and mouse species determined by using equilibrium dialysis, intrinsic hepatic clearance determined in human and mouse liver microsomes, and permeability studies in MDCKII (Madin–Darby canine kidney cells, a cell strain derived from the distal tubule or collecting duct of the nephron) and MDCKII-MDR1 (MDCK II cells overexpressing the multidrug resistance protein 1, MDR1) cell lines were performed according to previously reported procedures. Both cell lines were originally obtained from American Type Culture Collection (ATCC) and have been cultured and amplified with respect to permeability assessment at the test site.

[2] = Hepatic intrinsic clearance in human liver microsomes; format: in vitro ADME
Description: as §1

[3] = Kinetic solubility at pH 7.4; format: physicochemical; settings: pH 7.4, aqueous buffer, kinetic from dmso stock
Description: as §1

[4] = Permeability in MDCKII cells; format: in vitro ADME, canine; settings: dog, MDCK
Description: as §1

MDR1 = experiment: Permeability in MDCKII-MDR1 cells; format: in vitro ADME, canine; settings: dog, MDCK-MDR1
Description: as §1

MDCKII-MDR1 = experiment: Permeability in MDCKII-MDR1 cells; format: in vitro ADME, canine; settings: from efflux ratio in MDCKII-MDR1
Description: as §1

Human recombinant NAPRT [5] = biological target: T1, Human recombinant NAPRT (Homo sapiens, UniProt Q6XQN6); experiment: Kinetic analyses of NAPRT inhibition (HPLC assay, Lineweaver–Burk plot); format: biochemical
T1 construct: made in house
T1 sequence (Q6XQN6 1-538): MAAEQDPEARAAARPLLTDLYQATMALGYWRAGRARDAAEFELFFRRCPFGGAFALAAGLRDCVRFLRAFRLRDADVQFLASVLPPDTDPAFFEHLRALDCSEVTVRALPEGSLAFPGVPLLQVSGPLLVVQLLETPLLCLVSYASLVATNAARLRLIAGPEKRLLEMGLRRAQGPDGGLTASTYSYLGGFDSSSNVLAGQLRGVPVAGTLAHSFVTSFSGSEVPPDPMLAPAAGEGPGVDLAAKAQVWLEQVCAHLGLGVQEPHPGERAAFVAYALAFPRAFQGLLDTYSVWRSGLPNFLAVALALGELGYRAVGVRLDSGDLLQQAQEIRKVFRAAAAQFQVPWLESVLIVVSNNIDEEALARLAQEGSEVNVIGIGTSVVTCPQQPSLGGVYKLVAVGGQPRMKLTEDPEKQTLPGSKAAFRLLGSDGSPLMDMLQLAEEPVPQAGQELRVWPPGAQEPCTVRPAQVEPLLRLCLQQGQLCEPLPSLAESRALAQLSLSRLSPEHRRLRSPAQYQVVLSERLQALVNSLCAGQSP

[6] = Plasma protein binding by equilibrium dialysis, human; format: in vitro ADME; settings: performed at 0.5 μM, read-out: Protein Binding, Human plasma (FU)
Description: as §1

Human recombinant NAPRT [7] = biological target: T1, Human recombinant NAPRT; experiment: HPLC-based NAPRT activity screening assay; format: biochemical
[8] = Hepatic intrinsic clearance in mouse liver microsomes; format: in vitro ADME
Description: as §1

## CC(=O)Nc1cccc(CNc2ccc3c(c2)nc(C)n3C)c1 [Compound 18, N-(3-(((1,2-dimethyl-1H-benzo[d]imidazol-5-yl)amino)methyl)phenyl)acetamide]
[1]
  fraction unbound at 0.5 μM: > 0.5
[2]; human liver microsomes
  Human Cli: <9.92 µL/min/mg protein
[2]; human, well-stirred model
  WSM in vivo prediction: 6.83 mL/min/kg
[3]
  solubility kinetic: 312 µM and 130 µg/mL
[4]; apical to basolateral
  Papp A→B: 3.83 ×10⁻⁶ cm/s
[4]; basolateral to apical
  Papp B→A: 6.59 ×10⁻⁶ cm/s
[4]; read-out: Efflux Ratio MDCKII (B-A/A-B)
  efflux ratio: 1.7
MDR1; apical to basolateral
  Papp A→B: 0.339 ×10⁻⁶ cm/s
MDR1; basolateral to apical
  Papp B→A: 17.4 ×10⁻⁶ cm/s
MDR1; read-out: Efflux Ratio MDCKII-MDR1 (B-A/A-B)
  efflux ratio: 51.3
MDCKII-MDR1
  P-gp substrate status: P-gp substrate
Human recombinant NAPRT [5]
  Inhibition mechanism towards NA: noncompetitive
  Inhibition mechanism towards PRPP: mixed
Human recombinant NAPRT [5]; NA 25 µM to 100 µM at 0.4 mM PRPP, noncompetitive, read-out: Ki towards NA
  Ki: 338 µM
Human recombinant NAPRT [5]; PRPP 25 µM to 100 µM at 0.4 mM NA, mixed, read-out: Ki towards PRPP
  Ki: 134 µM
[6]
  fraction unbound at 0.5 μM: 0.146
Human recombinant NAPRT [7]
  Effect on NAPRT catalytic activity (in words): inhibit NAPRT activity
Human recombinant NAPRT [7]; 1 mM compound, 0.2 mM NA, 0.4 mM PRPP
  -Fold Stimulation (not active class): - (Not active, it is referred to compounds showing less than 10% inhibition or less than 1.10-fold stimulation)
Human recombinant NAPRT [7]; 1 mM compound, 0.2 mM NA, 0.4 mM PRPP, read-out: % Inhibition
  inhibition at 1000 µM: 46.1 ± 8.1%
[8]; mouse liver microsomes
  Mouse Cli: 120 µL/min/mg protein
[8]; mouse, well-stirred model
  WSM in vivo prediction: 26.9 mL/min/kg
